In PMC5424110, “Preclinical anti-arthritic study and pharmacokinetic properties of a potent histone deacetylase inhibitor MPT0G009” (Cell Death & Disease, 2014):
Entries after “also recorded” stand apart in the source; their conditions may differ. Where two headings read alike, the source gives them in different places.

Experiments:
RAW264.7 cells = test: Inflammatory mediator production by LPS-stimulated RAW264.7 cells; type: cell-based, mouse; conditions: RAW264.7, LPS 25 ng/ml 24 h; MPT0G009 0.1, 1 or 10 μM; SAHA 0.3, 3 or 30 μM
Protocol: (§1) (a) Structure of MPT0G009.
(§2) These supernatants were then assayed for prostaglandin E2 (PGE2), NO and IL-6.

[1] = system: RA fibroblast-like synoviocyte (RA-FLS); test: Inflammatory mediator production by stimulated RA-FLS; type: cell-based, human; conditions: MPT0G009 0.1, 1 or 10 μM, SAHA 0.3, 3 or 30 μM
Protocol: as §1, §2

HIG-82 synoviocytes = test: Cell proliferation assay (SRB), HIG-82 synoviocytes; type: cell-based, rabbit; conditions: 24 or 48 h
RA-FLS [2] = test: Cell proliferation assay (SRB), RA-FLS; type: cell-based, human; conditions: 24 or 48 h
RA-FLS [3] = test: Cell cycle distribution by propidium iodide flow cytometry; type: cell-based, human; conditions: RA-FLS 24 h, MPT0G009 1–1000 nM, SAHA 3–3000 nM
[4] = system: histone H3 acetylation in HIG-82 synoviocytes; test: Western blot of acetyl histone H3, HIG-82 cells; type: cell-based, rabbit; conditions: 3 μM MPT0G009 or 60 μM SAHA, 6, 12 or 24 h, starting at 6 h
[5] = system: histone H3 acetylation and HDAC3 in RA-FLS; test: Western blot of acetyl histone H3 and HDAC isoforms, RA-FLS; type: cell-based, human
Protocol: Then, cells were harvested and cell lysates were prepared for western blot analysis of the indicated proteins. (c) RA-FLSs were incubated for 1 h with or without the proteasome inhibitor, MG132 (1 μM). […] Results shown are representative of three independent experiments.

RAW264.7 macrophages = test: Osteoclast differentiation assay (TRAP stain), M-CSF/RANKL-induced; type: cell-based, mouse; conditions: RAW264.7, M-CSF/RANKL 50 ng/ml 5 days; 5 nM MPT0G009 or 50 nM SAHA
Protocol: Osteoclast formation was measured by quantifying cells stained for the osteoclast marker TRAP using an acid phosphatase kit (387-A; Sigma-Aldrich). Briefly, the specimens were fixed for 30 s in fixative solution (25.5% citrate solution, 66.3% acetone, 8.2% of 37% formaldehyde), then incubated for 1 h at 37 °C with a mixture of the provided naphthol AS-BI phosphate and tartrate solutions, followed by counterstaining with hematoxylin solution. Osteoclasts were counted as TRAP-positive multinuclear (>3 nuclei) cells using light microscopy. The morphological features of osteoclasts were also photographed.

rat AIA model = test: In vivo adjuvant-induced arthritis (AIA) model; conditions: day 21, ELISA, MPT0G009 25 mg/kg, SAHA 200 mg/kg, indomethacin 1 mg/kg
Protocol: Next, we evaluated the in vivo anti-arthritic effects of MPT0G009 in a rat AIA model. […] The inhibition of synoviocytes proliferation and inflammation by MPT0G009 treatment was also observed (Supplementary Figure 1).
Figure 5 MPT0G009 inhibits the development of arthritis in an AIA model. […] Subsequently, swelling of both hind paws was photographed. (b) Hind paw volumes in the indicated group of rats were measured using a digital plethysmometer on the indicated day after AIA induction. (c) Arthritis scores on day 21. (d) Serum levels of interleukin (IL)-1β (left panel) and IL-6 (right panel) on day 21 as measured by enzyme-linked immunosorbent assay (ELISA). (e) Top five rows: photomicrographs of ankle joint sections from the different groups stained with hematoxylin and eosin, safranin O, immunohistochemically stained with an anti-acetyl H3 antibody or TRAP stain. Arrows indicate osteoblasts (OB); arrowheads indicate osteoclasts (OC). Bottom panels: micro-CT results (arrows indicate bone erosion). (f) The BMD (in mg/mm^3) and the BMC (in mg) values for the bone tissue of the tarsus were analyzed using CT Analysis Software.
Five-week-old male Lewis rats were obtained from the National Laboratory Animal Center (Taipei, Taiwan). Complete Freund's adjuvant (CFA) was prepared by suspending heat-killed Mycobacterium butyricum (Difco, Sparks, MD, USA) in mineral oil at 3 mg/ml. CFA-induced arthritis was induced by intradermal injection of 100 μl of the CFA emulsion into the base of the right hind paw on day 0. […] On days 0, 2, 6, 9, 13, 17 and 21, the animals were weighed and both hind paw volumes measured using a digital plethysmometer (Diagnostic & Research Instruments Co. Ltd, Taipei, Taiwan). On day 21, micro-CT of the paws was performed by the Core Facilities Center of the National Research Program for Biopharmaceuticals using an in vivo micro-CT scanner (Skyscan 1176, Bruker Corp., Kontich, Belgium) at 18 μm resolution and 180° scanning with a rotation step of 0.8° per image, 300 ms integration time, 70 keV photon energy and 350 μA current. The reconstructed volumes from micro-CT scans were analyzed by CT Analysis Software (CTAn, Bruker Corp.). Quantification of volumetric BMD and bone volume (BV) was performed in a defined bone area ranging 12 mm from tarsals to the end of the calcaneus. The BMC was described by the product of BV and BMD. On day 21, the rats were killed and specimens from the phalanges and ankle joints stained with hematoxylin–eosin or safranin O for histopathological assessment by the National Laboratory Animal Center. Intensity of arthritis was scored as described previously from 0 to 4.[19] All four legs were scored, so the highest possible arthritic score was 16.

[6] = parameters: method as in PMID 17473456; conditions: rat, cited from earlier work
p21 in RA-FLS = test: p21 expression in RA-FLS by flow cytometry
Protocol: After three washes with FACS washing buffer, the fluorescence of the cells was analyzed on a FACScan flow cytometer (BD Biosciences). […] They were then incubated for 30 min at room temperature with 0.2 ml of DNA extraction buffer (0.2 M Na2HPO4 and 0.1 M citric acid buffer, pH 7.8), resuspended in 1 ml of propidium iodide staining buffer (0.1% Triton X-100, 100 μg/ml of RNase A and 80 μg/ml of propidium iodide in PBS), incubated at 37 °C for 30 min in the dark, sorted by FACScan, and analyzed using CellQuest software (BD Biosciences).

[7] = system: CD51/61 on RAW264.7 cells; test: Osteoclast-specific marker CD51/61 by flow cytometry; conditions: RAW264.7, M-CSF/RANKL; 5 nM MPT0G009 or 50 nM SAHA
Protocol: Subsequently, multinucleate tartrate-resistant acid phosphatase (TRAP)-positive cells were counted.
Cells were then TRAP stained, and the numbers of TRAP-positive multinuclear cells were counted. […] Images are at × 100 magnification, and the arrows indicate differentiated osteoclasts.
Cells were then TRAP stained, and the numbers of TRAP-positive multinuclear cells were counted (d) or were incubated with a FITC-conjugated anti-CD51/61 antibody and analyzed by flow cytometry (e).
After three washes with FACS washing buffer, the fluorescence of the cells was analyzed on a FACScan flow cytometer (BD Biosciences).

O=C(CCCCCCC(=O)Nc1ccccc1)NO [SAHA, suberoylanilide hydroxamic acid, reference compound]
NO production (RAW264.7 cells): inhibited | PGE2 production (RAW264.7 cells): inhibited | IL-6 production ([1]; IL-1β 10 ng/ml 24 h): inhibited | PGE2 production ([1]; LPS 25 ng/ml 24 h): inhibited | anti-proliferative effect (HIG-82 synoviocytes): concentration-dependent anti-proliferative effects | anti-proliferative effect (RA-FLS [2]): concentration-dependent anti-proliferative effects | subG1 peak (cellular apoptosis) (RA-FLS [3]): did not increase the subG1 peak | cell cycle arrest (RA-FLS [3]; all concentrations): G0/G1 phase arrest | acetylation of histone H3 (Acetyl-H3) [4]: had a similar effect | acetylation of histone H3 (Acetyl-H3) ([5]; 1 μM MPT0G009 or 30 μM SAHA, 6, 12 or 24 h, starting at 12 h): had a similar effect | levels of HDAC3 ([5]; 12 or 24 h, 1 μM MPT0G009 or 30 μM SAHA): had no effect | formation of M-CSF/RANKL-induced TRAP-positive cells (RAW264.7 macrophages): had no effect; also recorded: had little effect | serum levels of IL-1β (rat AIA model): significant decreases | serum levels of IL-6 (rat AIA model): significant decreases | AUC(0-inf) ([6]; i.v. 2 mg/kg): 278 ng·h/mL | CL ([6]; i.v. 2 mg/kg): 134 mL/min/kg | T1/2 ([6]; i.v. 2 mg/kg): 38.4 min | Vd ([6]; i.v. 2 mg/kg): 3.92 L/kg | AUC(0-inf) ([6]; p.o. 5 mg/kg): 49.40 ng·h/mL | Cmax ([6]; p.o. 5 mg/kg): 83.90 ng/mL | F (oral bioavailability) ([6]; p.o. 5 mg/kg): 6.9% | T1/2 ([6]; p.o. 5 mg/kg): 67.8 min | Tmax ([6]; p.o. 5 mg/kg): 10.2 min | expression of p21 (p21 in RA-FLS; RA-FLS 24 h, 1 μM MPT0G009 or 3 μM SAHA, flow cytometry or western blot): significantly increased | p21 (flow cytometry) (p21 in RA-FLS; RA-FLS, 3 μM, 24 h, Figure 1h): 96.42% | expression of the osteoclast-specific marker (CD51/61) [7]: had no effect

COc1ccc2c(c1)c(CC(=O)O)c(C)n2C(=O)c1ccc(Cl)cc1 [indomethacin, reference compound]
serum levels of IL-1β (rat AIA model): significant decreases | serum levels of IL-6 (rat AIA model): significant decreases
